Laboratory results published in patent publication US12065445B2, “CDK2 inhibitors and methods of using the same” (Cedilla Therapeutics, Inc., priority 2021, dated 2024).
pIC50: −log10 of the molar value.

Tests used:
[1] = tested on: Kuramochi cells labeled with mApple-H2B; assay: IncuCyte Cell Proliferation Assay; assay type: cell-based; conditions: 72 h
Experimental: IncuCyte® assay was used to measure the effect of disclosed compounds on cell proliferation. Fluorescent microscopy images of cells were taken immediately after compound treatment and 72 hours later. Image analysis software was used to obtain cell counts as a function of compound concentration. Kuramochi cells labeled with mApple-H2B were seeded on 384-well assay-ready plates. Plates were placed in an IncuCyte® (Sartorius) and scanned at 0 and 72 hours. IncuCyte® software was used to count the number of fluorescent nuclei in each well. The fold change in cell count from 0 to 72 hours in wells treated with increasing compounds concentrations (10 pts, ½ log dilution, 20 μM top concentration) was normalized to DMSO control wells. The normalized cell counts were fit with dose response curves and a […] was calculated.

Kuramochi cells = assay: BrdU Cell Proliferation Assay; assay type: cell-based; conditions: read-out: BrdU - KURAMOCHI.1: IC50
How it was run: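 Signal is 450 nm absorbance from a peroxidase anti-BrdU ELISA after a 1-hour BrdU label, background-subtracted and normalized to DMSO-treated wells. Kuramochi cells (2,000 per well) had been exposed to compound for 4 days. Dosing used a 10-point dose response in 3-fold steps.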

Structure (SMILES) | pIC50 [1] | pIC50 (Kuramochi cells)
CNC(=O)[C@@H](NC(=O)[C@@H]1CN(C(=O)c2cncs2)CC12CN(Cc1cnco1)C2)[C@@H](C)OCC12CCC(CC1)OC2 [I-350] | < 4.70 | 
Cc1ccc(CNC(=O)[C@@H]2CN(C(=O)c3cnc(Cc4ccccc4)s3)CC23CN(C(=O)[C@H]2CC2(C)C)C3)nn1 [I-405] | < 4.70 | 
C[C@@H](OCC1CCCCC1)[C@H](NC(=O)[C@@H]1CN(C(=O)c2cnn(Cc3ccccc3)c2)CC12CN(C(=O)[C@H]1CC1(C)C)C2)C(=O)N1CCC(c2cc[nH]n2)CC1 [I-443] | ≥ 6.30 | 
Cc1nc(C)c(C(=O)N2C[C@@H](C(=O)N[C@H](C(=O)N3CCC(C(F)(F)F)CC3)[C@@H](C)OCC34CCC(CC3)OC4)C3(C2)CN(C(=O)[C@H]2CC2(C)C)C3)s1 [I-456] | 5.30 to 6.30 | 
C[C@@H](OCC1CCCCC1)[C@@H](COC1CCCNC1)NC(=O)[C@@H]1CN(C(=O)c2cncs2)CC12CN(C(=O)[C@H]1CC1(C)C)C2 (stereo partly shown) [I-332] | 4.70 to 5.30 | 
C[C@@H](OCC1CCCCC1)[C@H](NC(=O)C1CN(C(=O)c2cnn(Cc3ccccc3)c2)CC12CN(C(=O)[C@H]1CC1(C)C)C2)C(=O)NCCC(=O)O (stereo partly shown) [I-353] | 4.70 to 5.30 | 
COC[C@H]1CCCN(C(=O)[C@@H](NC(=O)[C@@H]2CN(C(=O)c3cncs3)CC23CN(C(=O)[C@H]2CC2(C)C)C3)[C@@H](C)OC[C@H]2CC[C@H](NC(C)=O)CC2)C1 [I-434] | < 4.70 | 
C[C@@H](OCC1CCC(F)(F)CC1)[C@H](NC(=O)[C@@H]1CN(C(=O)c2cncs2)CC12CN(C(=O)[C@H]1CC1(C)C)C2)C(=O)N1CCC(CO)CC1 [I-397] | 5.30 to 6.30 | 
CNC(=O)C(NC(=O)[C@@H]1CN(C(=O)c2cnn(Cc3ccccc3)c2)CC12CN(C(=O)[C@H]1CC1(C)C)C2)c1cccc(C2CCCCC2)n1 (stereo partly shown) [I-391] | 5.30 to 6.30 | 
CNC(=O)[C@@H](NC(=O)C1(F)CN(C(=O)c2cnn(Cc3ccccc3)c2)CC12CN(C(=O)[C@H]1CC1(C)C)C2)[C@@H](C)OCC1CCCCC1 (stereo partly shown) [I-501] | 5.30 to 6.30 | 
COC[C@H]1CCCN(C(=O)[C@@H](NC(=O)[C@@H]2CN(C(=O)c3cncs3)CC23CN(C(=O)[C@H]2CC2(C)C)C3)[C@@H](C)OCC2CCC3(CCC3)CC2)C1 [I-390] | ≥ 6.30 | 
CNC(=O)[C@@H](NC(=O)[C@@H]1CN(C(=O)c2cncs2)CC12CN(Cc1ccn[nH]1)C2)[C@@H](C)OCC12CCC(CC1)OC2 [I-351] | < 4.70 | 
COC[C@H]1CCCN(C(=O)[C@@H](NC(=O)[C@@H]2CN(C(=O)c3cncs3)CC23CN(C(=O)[C@H]2CC2(C)C)C3)[C@@H](C)OC[C@H]2CC[C@H](OC(F)(F)F)CC2)C1 [I-435] | 5.30 to 6.30 | 
CNC(=O)C(NC(=O)[C@@H]1CN(C(=O)c2cncs2)CC12CN(C(=O)[C@H]1CC1(C)C)C2)c1cccc(C2CCC(F)(F)CC2)n1 (stereo partly shown) [I-411] | < 4.70 | 
CC1(C)C[C@@H]1C(=O)N1CC2(CN(C(=O)c3cncs3)C[C@H]2C(=O)NC(c2cccc(C3CCOCC3)n2)C2CCCO2)C1 (stereo partly shown) [I-497] | < 4.70 | 
C[C@@H](OCc1ccccc1)[C@H](NC(=O)C1CN(C(=O)c2cnn(Cc3ccccc3)c2)CC12CN(C(=O)[C@H]1CC1(C)C)C2)C(=O)N1CC2(CCC2)C1 (stereo partly shown) [I-106] |  | 5.30 to 6.30
CC1(C)C[C@@H]1C(=O)N1CC2(CN(C(=O)c3cnn(Cc4ccccc4)c3)C[C@H]2C(=O)N2CCC(OCc3ccccc3)CC2)C1 [I-214] |  | < 5.00
C[C@@H](NC(=O)[C@@H]1CN(C(=O)c2cnn(Cc3ccccc3)c2)CC12CN(C(=O)[C@H]1CC1(C)C)C2)c1cccc(F)c1 [I-128A] |  | < 5.00
C[C@H](NC(=O)[C@H]1CN(C(=O)c2cnn(Cc3ccccc3)c2)CC12CN(C(=O)[C@H]1CC1(C)C)C2)c1cccc(F)c1 [I-127B] |  | < 5.00
CNC(=O)[C@@H](NC(=O)[C@@H]1CN(C(=O)c2cnn(Cc3ccccc3)c2)CC12CN(C(=O)[C@H]1CC1(C)C)C2)[C@@H](C)OCC1CCCC1 [I-110A] |  | 5.30 to 6.30

Structure (SMILES) | pIC50 [1] | pIC50 (Kuramochi cells)
CNC(=O)[C@@H](NC(=O)[C@@H]1CN(C(=O)c2cnn(Cc3ccccc3)c2)CC12CN(C(=O)C1(CCOC)CC1)C2)[C@@H](C)OCc1ccccc1 [I-102A] |  | < 5.00
CC1(C)C[C@@H]1C(=O)N1CC2(CN(C(=O)c3cnn(Cc4ccccc4)c3)C[C@@H]2C(=O)Nc2ccc(Cc3ccccc3)nc2)C1 [I-168] |  | < 5.00
C[C@@H](OCc1ccccc1)[C@H](NC(=O)C1CN(C(=O)c2cnn(Cc3ccccc3)c2)CC12CN(C(=O)[C@H]1CC1(C)C)C2)C(=O)N1CCCC(CO)C1 (stereo partly shown) [I-98] |  | < 5.00
C[C@@H](OCC1CCCCC1)[C@H](NC(=O)[C@@H]1CN(C(=O)c2cnn(Cc3ccccc3)c2)CC12CN(C(=O)[C@H]1CC1(C)C)C2)C(N)=O [I-200] |  | 5.30 to 6.30
CC1(C)C[C@@H]1C(=O)N1CC2(CN(C(=O)c3cnn(Cc4ccccc4)c3)C[C@H]2C(=O)N[C@@H]2CC[C@@H]2O)C1 [I-201B] |  | < 5.00
C[C@@H](OCC1CCC(F)(F)CC1)[C@H](NC(=O)[C@H]1CN(C(=O)c2cn[nH]c2)CC12CN(C(=O)C1(C(F)(F)F)CC1)C2)C(=O)N1CCC(F)(F)CC1 [I-188B] |  | < 5.00
CNC(=O)[C@H](CCCc1ccccc1)NC(=O)[C@H]1CN(C(=O)c2cnn(Cc3ccccc3)c2)CC12CN(C(=O)[C@H]1CC1(C)C)C2 [I-101B] |  | < 5.00
CNC(=O)[C@H](COCc1ccccc1)NC(=O)[C@@H]1CN(C(=O)c2cnn(Cc3ccccc3)c2)CC12CN(C(=O)C(C)(C)C)C2 [I-100A] |  | < 5.00
CNC(=O)[C@@H](NC(=O)[C@H]1CN(C(=O)c2cnn(Cc3ccccc3)c2)CC12CN(C(=O)CC1(CO)CC1)C2)[C@@H](C)OCc1ccccc1 [I-92B] |  | < 5.00
CNC(=O)[C@@H](NC(=O)[C@H]1CN(C(=O)c2cncs2)CC12CN(C(=O)CC1CC1)C2)[C@@H](C)OCC1CCCCC1 [I-103B] |  | < 5.00
CC1(C)C[C@@H]1C(=O)N1CC2(CN(C(=O)c3cnn(Cc4ccccc4)c3)C[C@@H]2C(=O)Nc2cccc(Cc3ccccc3)c2)C1 [I-75B] |  | < 5.00
Cc1noc([C@H](C)NC(=O)[C@H]2CN(C(=O)c3cnn(Cc4ccccc4)c3)CC23CN(C(=O)[C@H]2CC2(C)C)C3)n1 [I-158B] |  | < 5.00
C[C@@H](OCC1CCCCC1)[C@H](NC(=O)[C@@H]1CN(C(=O)c2cnn(Cc3ccccc3)c2)CC12CN(C(=O)[C@H]1CC1(C)C)C2)C(=O)N1CC(CN)C1 [I-239] |  | < 5.00
CNC(=O)[C@@H](NC(=O)[C@@H]1CN(C(=O)c2cnn(CC3CCNCC3)c2)CC12CN(C(=O)[C@H]1CC1(C)C)C2)[C@@H](C)OCc1ccccc1 [I-19A] |  | < 5.00
CNC(=O)[C@@H](NC(=O)[C@H]1CN(C(=O)c2cnn(Cc3ccccc3)c2)CC12CN(C(=O)C(C)(C)C#N)C2)[C@@H](C)OCc1ccccc1 [I-76B] |  | < 5.00
CNC(=O)[C@@H](NC(=O)[C@@H]1CN(C(=O)c2cnn(Cc3ccccc3)c2)CC12CN(C(=O)[C@H]1CC1(C)C)C2)[C@@H](C)OCC1CCOCC1 [I-119A] |  | < 5.00
CNC(=O)[C@@H](NC(=O)[C@H]1CN(C(=O)c2cnc(C(C)(C)C)s2)CC12CN(C(=O)[C@H]1CC1(C)C)C2)[C@@H](C)OCC1CCCCC1 [I-229B] |  | < 5.00
CC1(C)C[C@@H]1C(=O)N1CC2(CN(C(=O)c3cnn(Cc4ccccc4)c3)C[C@H]2C(=O)Nc2cccc(-c3ccccc3)c2)C1 [I-63A] |  | 5.00 to 5.30
CC1(C)C[C@@H]1C(=O)N1CC2(CN(C(=O)c3cnn(Cc4ccccc4)c3)C[C@@H]2C(=O)Nc2ccc(-c3ccccc3)cc2)C1 [I-81B] |  | 5.00 to 5.30
C[C@@H](OCC1CCCCC1)[C@H](NC(=O)[C@@H]1CN(C(=O)c2ccns2)CC12CN(C(=O)[C@H]1CC1(C)C)C2)C(=O)N1CCCCC1 [I-217] |  | ≥ 6.30
